From patent publication US10100097B2, “GIP-GLP-1 dual agonist compounds and methods” (Zealand Pharma A/S, priority 2012, dated 2018)
Numbered stars: 1 amine (or outer) side, 2 acyl side, 3 side chain; on linkers, the order of the positions; unused ones are H or OH. Square brackets hold non-standard residues; d marks the D form. Side chains are listed from the residue outwards. Peptide text beside a SMILES is read from it. * marks the point of attachment. C16 diacid = O=C(O)CCCCCCCCCCCCCCC(=O)*; γGlu = O=C(O)[C@H](CCC(=O)[*:2])N[*:1]; Palmitoyl = CCCCCCCCCCCCCCCC(=O)*; Aib = CC(C)(N)C(=O)O

What was measured:
[1] = target: T1, human GIP R (Homo sapiens, UniProt P48546); assay: Human GIP receptor (GIP R) activity assay, cAMP induction (AlphaScreen cAMP kit); type: cell-based; details: HEK293 cells expressing the human GIP R; cAMP induction, 15 min at 37° C.; average values of multiple determinations; read-out: GIP R (EC50 in nM)
T1 construct: expressed in transfected cells
T1 sequence (P48546 22-466): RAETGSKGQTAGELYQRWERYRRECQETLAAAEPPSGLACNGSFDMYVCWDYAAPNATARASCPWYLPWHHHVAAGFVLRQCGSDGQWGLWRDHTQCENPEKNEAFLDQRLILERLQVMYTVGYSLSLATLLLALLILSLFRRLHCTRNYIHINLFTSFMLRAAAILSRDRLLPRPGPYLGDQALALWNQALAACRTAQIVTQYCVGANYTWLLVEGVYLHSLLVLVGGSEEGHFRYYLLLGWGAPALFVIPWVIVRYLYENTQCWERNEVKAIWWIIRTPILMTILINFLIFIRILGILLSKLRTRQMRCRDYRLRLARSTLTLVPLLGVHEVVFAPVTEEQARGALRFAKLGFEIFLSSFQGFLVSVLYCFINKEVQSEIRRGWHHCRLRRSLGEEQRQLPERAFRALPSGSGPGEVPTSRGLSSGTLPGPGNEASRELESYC
Experimental: Human GIP Receptor (GIP R) and GLP-1 Receptor (GLP-1 R) Activity Assay
In vitro effects of peptide conjugates of the invention were assessed by measuring the induction of cAMP following stimulation of the respective receptor by GIP, GLP1 or analogues of these, as outlined in the invention, using the AlphaSceen® cAMP kit from Perkin-Elmer according to instructions. Briefly. HEK293 cells expressing the human GIP R or GLP-1 R (stable cell lines generated through transfection of the cDNA for human GIP R or GLP-1 and selection of stable clones) were seeded at 30,000 cells/well in 96-well microtiter plates coated with 0.01% poly-L-lysine, and grown for 1 day in culture in 200 μl growth medium (DMEM, 10% FCS, Penicillin (100 IU/ml), Streptomycin (100 μg/ml)). On the day of analysis, growth medium was removed and the cells were washed once with […] Tyrode's buffer (Tyrode's Salts (9.6 g/1), 10 mM HEPES, pH 7.4). […] The Assay buffer was removed and cells are lysed in 80 μl Lysis buffer (0.1% w/v BSA, 5 mM HEPES, 0.3% v/v Tween-20) per well. From each well 10 μl lysed cells was transferred to a 384-well plate and mixed with 15 μl bead-mix (1 Unit/15 μl anti-cAMP Acceptor Beads, 1 Unit/15 μl Donor Beads, and 1 Unit/15 μl Biotinylated cAMP in Assay Buffer). The plates were mixed and incubated in the dark for an hour at room temperature before measuring using an Envision™ plate reader (Perkin-Elmer).

[2] = target: T2, human GLP-1 R (Homo sapiens, UniProt P43220); assay: Human GLP-1 receptor (GLP-1 R) activity assay, cAMP induction (AlphaScreen cAMP kit); type: cell-based; details: HEK293 cells expressing the human GLP-1 R, 15 min at 37° C., average values of multiple determinations, read-out: GLP1 R (EC50 in nM)
T2 construct: expressed in transfected cells
In short: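 Stable HEK293 clones expressing human GIP R or GLP-1 R, grown 1 day, washed in Tyrode's buffer (10 mM HEPES, pH 7.4), then stimulated with peptide. Cells lysed and cAMP quantified by AlphaScreen competition with biotinylated cAMP, 1 h dark incubation at room temperature.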

T2 sequence (P43220 24-463): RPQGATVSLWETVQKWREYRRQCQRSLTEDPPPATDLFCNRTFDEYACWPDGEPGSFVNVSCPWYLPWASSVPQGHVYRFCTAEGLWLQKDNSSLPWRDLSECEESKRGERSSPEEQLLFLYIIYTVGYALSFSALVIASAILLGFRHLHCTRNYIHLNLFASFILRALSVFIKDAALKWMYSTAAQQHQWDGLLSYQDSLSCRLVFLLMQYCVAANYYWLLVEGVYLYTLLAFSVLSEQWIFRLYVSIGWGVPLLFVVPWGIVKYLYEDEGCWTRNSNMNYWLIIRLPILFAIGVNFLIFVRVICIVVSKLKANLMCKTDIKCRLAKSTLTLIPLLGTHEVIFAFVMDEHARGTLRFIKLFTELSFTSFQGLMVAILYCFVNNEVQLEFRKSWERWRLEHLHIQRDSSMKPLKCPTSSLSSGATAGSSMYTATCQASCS

Compound | EC50 [1] | EC50 [2]
CC[C@H](C)[C@H](NC(=O)[C@H](CCCCN)NC(=O)[C@H](CC(=O)O)NC(=O)[C@H](CC(C)C)NC(=O)[C@H](C)NC(=O)[C@@H](NC(=O)[C@H](CO)NC(=O)[C@H](Cc1ccc(O)cc1)NC(=O)[C@H](CC(=O)O)NC(=O)[C@H](CO)NC(=O)[C@@H](NC(=O)[C@H](Cc1ccccc1)NC(=O)[C@@H](NC(=O)CNC(=O)[C@H](CCC(=O)O)NC(=O)C(C)(C)NC(=O)[C@@H](N)Cc1ccc(O)cc1)[C@@H](C)O)[C@@H](C)O)[C@@H](C)CC)C(=O)N[C@@H](C)C(=O)N[C@@H](CCC(N)=O)C(=O)N[C@@H](CCCNC(=N)N)C(=O)N[C@@H](C)C(=O)N[C@@H](Cc1ccccc1)C(=O)N[C@H](C(=O)N[C@@H](CC(N)=O)C(=O)N[C@@H](Cc1c[nH]c2ccccc12)C(=O)N[C@@H](CC(C)C)C(=O)N[C@H](C(=O)N[C@@H](C)C(=O)NC(C)(C)C(=O)N[C@@H](CCCCN)C(N)=O)C(C)C)C(C)C [Compound 3] (H-Y[Aib]EGTFTSDYSIALDKIAQRAFVNWLVA[Aib]K-NH2) | 0.015 nM | 0.022 nM
CC[C@H](C)[C@H](NC(=O)[C@H](CO)NC(=O)[C@H](Cc1ccc(O)cc1)NC(=O)[C@H](CC(=O)O)NC(=O)[C@H](CO)NC(=O)[C@@H](NC(=O)[C@H](Cc1ccccc1)NC(=O)[C@@H](NC(=O)CNC(=O)[C@H](CCC(=O)O)NC(=O)C(C)(C)NC(=O)[C@@H](N)Cc1ccc(O)cc1)[C@@H](C)O)[C@@H](C)O)C(=O)N[C@@H](Cc1ccc(O)cc1)C(=O)N[C@@H](CC(C)C)C(=O)N[C@@H](CC(=O)O)C(=O)N[C@@H](CO)C(=O)N[C@@H](CCCCN)C(=O)N[C@@H](C)C(=O)N[C@@H](CCC(N)=O)C(=O)N[C@@H](CCCNC(=N)N)C(=O)N[C@@H](C)C(=O)N[C@@H](Cc1ccccc1)C(=O)N[C@H](C(=O)N[C@@H](CC(N)=O)C(=O)N[C@@H](Cc1c[nH]c2ccccc12)C(=O)N[C@@H](CC(C)C)C(=O)N[C@@H](CC(C)C)C(=O)N[C@@H](C)C(=O)NC(C)(C)C(=O)N[C@@H](CCCCN)C(N)=O)C(C)C [Compound 16] (H-Y[Aib]EGTFTSDYSIYLDSKAQRAFVNWLLA[Aib]K-NH2) | 0.053 nM | 0.012 nM
CCCCCCCCCCCCCCCC(=O)N[C@@H](CCC(=O)NCCCC[C@H](NC(=O)[C@H](CO)NC(=O)[C@H](CC(=O)O)NC(=O)[C@H](CC(C)C)NC(=O)[C@H](Cc1ccc(O)cc1)NC(=O)[C@@H](NC(=O)[C@H](CO)NC(=O)[C@H](Cc1ccc(O)cc1)NC(=O)[C@H](CC(=O)O)NC(=O)[C@H](CO)NC(=O)[C@@H](NC(=O)[C@H](Cc1ccccc1)NC(=O)[C@@H](NC(=O)CNC(=O)[C@H](CCC(=O)O)NC(=O)C(C)(C)NC(=O)[C@@H](N)Cc1ccc(O)cc1)[C@@H](C)O)[C@@H](C)O)[C@@H](C)CC)C(=O)N[C@@H](C)C(=O)N[C@@H](C)C(=O)N[C@@H](Cc1c[nH]cn1)C(=O)N[C@@H](CC(=O)O)C(=O)N[C@@H](Cc1ccccc1)C(=O)N[C@H](C(=O)N[C@@H](CCC(=O)O)C(=O)N[C@@H](Cc1c[nH]c2ccccc12)C(=O)N[C@@H](CC(C)C)C(=O)N[C@@H](CC(C)C)C(=O)N[C@@H](CCCNC(=N)N)C(=O)N[C@@H](C)C(N)=O)C(C)C)C(=O)O [Compound 47] (H-Y[Aib]EGTFTSDYSIYLDSK([γGlu-Palmitoyl])AAHDFVEWLLRA-NH2) | 0.096 nM | –
CCCCCCCCCCCCCCCC(=O)N[C@@H](CCC(=O)NCCCC[C@H](NC(=O)[C@H](CCC(=O)O)NC(=O)[C@H](CC(=O)O)NC(=O)[C@H](CC(C)C)NC(=O)[C@H](Cc1ccc(O)cc1)NC(=O)[C@@H](NC(=O)[C@H](CO)NC(=O)[C@H](Cc1ccc(O)cc1)NC(=O)[C@H](CC(=O)O)NC(=O)[C@H](CO)NC(=O)[C@@H](NC(=O)[C@H](Cc1ccccc1)NC(=O)[C@@H](NC(=O)CNC(=O)[C@H](CCC(=O)O)NC(=O)C(C)(C)NC(=O)[C@@H](N)Cc1ccc(O)cc1)[C@@H](C)O)[C@@H](C)O)[C@@H](C)CC)C(=O)N[C@@H](C)C(=O)N[C@@H](C)C(=O)N[C@@H](CCCCN)C(=O)N[C@@H](CC(=O)O)C(=O)N[C@@H](Cc1ccccc1)C(=O)N[C@H](C(=O)N[C@@H](CCC(=O)O)C(=O)N[C@@H](Cc1c[nH]c2ccccc12)C(=O)N[C@@H](CC(C)C)C(=O)N[C@@H](CCC(=O)O)C(=O)N[C@@H](CO)C(=O)N[C@@H](C)C(N)=O)[C@@H](C)CC)C(=O)O [Compound 50] (H-Y[Aib]EGTFTSDYSIYLDEK([γGlu-Palmitoyl])AAKDFIEWLESA-NH2) | 0.053 nM | –

Further molecules by falling EC50 [1], results first:

EC50 [1] | EC50 [2] | Compound
0.096 nM | – | CC[C@H](C)[C@H](NC(=O)[C@H](CO)NC(=O)[C@H](Cc1ccc(O)cc1)NC(=O)[C@H](CC(=O)O)NC(=O)[C@H](CO)NC(=O)[C@@H](NC(=O)[C@H](Cc1ccccc1)NC(=O)[C@@H](NC(=O)CNC(=O)[C@H](CCC(=O)O)NC(=O)C(C)(C)NC(=O)[C@@H](N)Cc1ccc(O)cc1)[C@@H](C)O)[C@@H](C)O)C(=O)N[C@@H](Cc1ccc(O)cc1)C(=O)N[C@@H](CC(C)C)C(=O)N[C@@H](CC(=O)O)C(=O)N[C@@H](CCCCN)C(=O)N[C@@H](CCCCN)C(=O)N[C@@H](C)C(=O)N[C@@H](CCC(N)=O)C(=O)N[C@@H](CCCNC(=N)N)C(=O)N[C@@H](C)C(=O)N[C@@H](Cc1ccccc1)C(=O)N[C@H](C(=O)N[C@@H](CC(N)=O)C(=O)N[C@@H](Cc1c[nH]c2ccccc12)C(=O)N[C@@H](CC(C)C)C(=O)N[C@@H](CC(C)C)C(=O)NC(C)(C)C(=O)N[C@@H](CCCCN)C(N)=O)C(C)C [Compound 24] (H-Y[Aib]EGTFTSDYSIYLDKKAQRAFVNWLL[Aib]K-NH2)
0.022 nM | – | CC[C@H](C)[C@H](NC(=O)[C@H](CO)NC(=O)[C@H](Cc1ccc(O)cc1)NC(=O)[C@H](CC(=O)O)NC(=O)[C@H](CO)NC(=O)[C@@H](NC(=O)[C@H](Cc1ccccc1)NC(=O)[C@@H](NC(=O)CNC(=O)[C@H](CCC(=O)O)NC(=O)C(C)(C)NC(=O)[C@@H](N)Cc1ccc(O)cc1)[C@@H](C)O)[C@@H](C)O)C(=O)N[C@@H](Cc1ccc(O)cc1)C(=O)N[C@@H](CC(C)C)C(=O)N[C@@H](CC(=O)O)C(=O)N[C@@H](CCCCN)C(=O)N[C@@H](CCCCNC(=O)CC[C@H](NC(=O)CCCCCCCCCCCCCCC(=O)O)C(=O)O)C(=O)N[C@@H](C)C(=O)N[C@@H](CCC(N)=O)C(=O)N[C@@H](CCCNC(=N)N)C(=O)N[C@@H](C)C(=O)N[C@@H](Cc1ccccc1)C(=O)N[C@H](C(=O)N[C@@H](CC(N)=O)C(=O)N[C@@H](Cc1c[nH]c2ccccc12)C(=O)N[C@@H](CC(C)C)C(=O)N[C@@H](CC(C)C)C(=O)N[C@@H](C)C(=O)NC(C)(C)C(=O)N[C@@H](CCCCN)C(N)=O)C(C)C [Compound 31] (H-Y[Aib]EGTFTSDYSIYLDKK([γGlu-C16 diacid])AQRAFVNWLLA[Aib]K-NH2)
0.007 nM | 0.018 nM | CC[C@H](C)[C@H](NC(=O)[C@H](CO)NC(=O)[C@H](Cc1ccc(O)cc1)NC(=O)[C@H](CC(=O)O)NC(=O)[C@H](CO)NC(=O)[C@@H](NC(=O)[C@H](Cc1ccccc1)NC(=O)[C@@H](NC(=O)CNC(=O)[C@H](CCC(=O)O)NC(=O)C(C)(C)NC(=O)[C@@H](N)Cc1ccc(O)cc1)[C@@H](C)O)[C@@H](C)O)C(=O)N[C@@H](Cc1ccc(O)cc1)C(=O)N[C@@H](CC(C)C)C(=O)N[C@@H](CCC(=O)O)C(=O)N[C@@H](CCCCN)C(=O)N[C@@H](CCCCN)C(=O)N[C@@H](C)C(=O)N[C@@H](C)C(=O)N[C@@H](Cc1c[nH]cn1)C(=O)N[C@@H](CC(=O)O)C(=O)N[C@@H](Cc1ccccc1)C(=O)N[C@H](C(=O)N[C@@H](CCC(=O)O)C(=O)N[C@@H](Cc1c[nH]c2ccccc12)C(=O)N[C@@H](CC(C)C)C(=O)N[C@@H](CC(C)C)C(=O)N[C@@H](CO)C(=O)N[C@@H](C)C(N)=O)C(C)C [Compound 38] (H-Y[Aib]EGTFTSDYSIYLEKKAAHDFVEWLLSA-NH2)
